Reference: patent US6833387B1, “Chemical compounds” (AstraZeneca AB, priority 1999, dated 2004)
Like-named read-outs stand apart in the source and are kept apart here.

Columns and labels:
MCP-1 receptor B (CCR2B) = target: T1, MCP-1 receptor B (CCR2B) (Homo sapiens, UniProt P41597); experiment: hMCP-1 receptor binding assay (125I-MCP-1, CHO-CCR2B cell membranes)
T1 construct: expressed in transfected cells; membrane fragments
T1 sequence (P41597 1-360 isoform P41597-2): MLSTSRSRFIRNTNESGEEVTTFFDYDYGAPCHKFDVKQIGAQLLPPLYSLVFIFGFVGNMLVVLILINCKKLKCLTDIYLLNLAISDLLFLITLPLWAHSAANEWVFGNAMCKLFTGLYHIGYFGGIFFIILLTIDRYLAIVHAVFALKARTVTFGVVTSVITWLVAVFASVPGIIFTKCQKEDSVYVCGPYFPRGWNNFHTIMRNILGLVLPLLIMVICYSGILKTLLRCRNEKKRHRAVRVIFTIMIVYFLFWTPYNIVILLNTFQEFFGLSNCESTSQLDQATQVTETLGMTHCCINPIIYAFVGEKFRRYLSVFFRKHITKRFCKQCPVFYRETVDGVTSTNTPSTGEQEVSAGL
Excerpt: The MCP-1 receptor B (CCR2B) cDNA was cloned by PCR from THP-1 cell RNA using suitable oligonucleotide primers based on the published MCP-1 receptor sequences (Charo et al., 1994, Proc. Natl. Acad Sci. USA. 91, 2752). The resulting PCR products were cloned into vector PCR-II™ (In Vitrogen, San Diego, Calif.). Error free CCR2B cDNA was subcloned as a Hind III-Not I fragment into the eukaryotic expression vector pCDNA3 (In Vitrogen) to generate pCDNA3/CC-CKR2A and pCDNA3/CCR2B respectively.
Linearised pCDNA3/CCR2B DNA was transfected into CHO-K1 cells by calcium phosphate precipitation (Wigler et al., 1979, Cell, 16, 777). Transfected cells were selected by the addition of Geneticin Sulphate (G418, Gibco BRL) at 1 mg/ml, 24 hours after the cells had been transfected. Preparation of RNA and Northern blotting were carried out as described previously (Needham et al., 1995, Prot. Express. Purific., 6, 134). CHO-K1 clone 7 (CHO-CCR2B) was identified as the highest MCP-1 receptor B expressor.
CHO-CCR2B cells were grown in DMEM supplemented with 10% foetal calf serum. 2 mM glutamine. […]
^125I MCP-1 was prepared using Bolton and Hunter conjugation (Bolton et al. 1973. Biochem. J., 133, 529, Amersham International plc]. Equilibrium binding assays were carried out using the method of Ernst et al., 1994, J. Immunol., 152, 3541. Briefly, varying amounts of ^125I-labeled MCP-1 were added to 7 μg of purified CHO-CCR2B cell membranes in 100 μl of Binding Buffer. After 1 hour incubation at room temperature the binding reaction mixtures were filtered and washed 5 times through a plate washer (Brandel MLR-96T Cell Harvester) using ice cold Binding Buffer. Filter mats (Brandel GF/B) were pre-soaked for 60 minutes in 0.3% polyethylenimine prior to use. Following filtration individual filters were separated into 3.5 ml tubes (Sarstedt No. 55,484) and bound ^125I-labeled MCP-1 was determined (LKB 1277 Gammamaster). […] Non-specific binding was determined by the inclusion of a 200-fold molar excess of unlabelled MCP-1 in the reaction. […]

THP-1 cells [1] = experiment: MCP-1 mediated calcium flux in THP-1 cells; assay type: cell-based, human; conditions: stimulation of THP-1 cells, approximate; read-out: EC50 for rise in [Ca2+]i
Method: The human monocytic cell line THP-1 was grown in a synthetic cell culture medium RPMI 1640 supplemented with 10% foetal calf serum. 6 mM glutamine and Penicillin-Streptomycin (at 50 μg streptomycin/mil, Gibco BRL). THP-1 cells were washed in HBSS (lacking Ca^2+ and Mg^2+)+1 mg/ml BSA and resuspended in the same buffer at a density of 3×10^6 cells/ml. The cells were then loaded with […] FURA-2/AM for 30 min at 37° C., washed twice in HBSS, and resuspended at 1×10^6 cells/ml. THP-1 cell suspension (0.9 ml) was added to a 5 ml disposable cuvette containing a magnetic stirrer bar and 2.1 ml of prewarmed (37° C.) HBSS containing 1 mg/ml BSA. 1 mM MgCl2 and 2 mM CaCl2. The cuvette was placed in a fluorescence spectrophotometer (Perkin Elmer, Norwalk, Conn.) and preincubated for 4 min at 37° C. with stirring. Fluorescence was recorded over 70 sec and cells were stimulated by addition of hMCP-1 to the cuvette after 10 sec. [Ca^2+]i was measured by excitation at 340 nm and 380 nm alternately and subsequent measurement of the intensity of the fluorescence emission at 510 nm.
where the Kd for FURA-2 Ca^2+ complex at 37° C. was taken to be 224 nm. […]

THP-1 cells [2] = experiment: hMCP-1 mediated chemotaxis; assay type: cell-based, human; conditions: THP-1 cell migration
Method: In vitro chemotaxis assays were performed using the human monocytic cell line THP-1. Cell migration through polycarbonate membranes was measured by enumerating those passing through either directly by Coulter counting or indirectly by use of a colourimetric viability assay measuring the cleavage of a tetrazolium salt by the mitochondrial respirator chain (Scudiero D. A., et al. 1988, Cancer Res., 48, 4827-4833).
Chemoattractants were introduced into a 96-well microtitre plate which forms the lower well of a chemotaxis chamber fitted with a PVP-free 5 μm poresize polycarbonate adhesive framed filter membrane (NeuroProbe MB series, Cabin John, Md. 20818, USA) according to the manufacturer's instructions. The chemoattractant was diluted as appropriate in synthetic cell culture medium. […] The plate was incubated at 37° C. for 3 h and the absorbance of the soluble formazan product was read on a microtitre plate reader at 450 nm. The data was input into a spreadsheet, corrected for any random migration in the absence of chemoattractant and the average absorbance values, standard error of the mean, and significance tests were calculated, hMCP-1 induced concentration dependent cell migration with a characteristic biphasic response, maximal 0.5-1.0 nm. […]

| EC50 (THP-1 cells [1]) | IC50 (MCP-1 receptor B (CCR2B); membrane fragments from CHO-CCR2B cells, cold competition, read-out: IC50 of MCP-1 binding to CCR2B) | Kd (MCP-1 receptor B (CCR2B); membrane fragments from CHO-CCR2B cells, equilibrium binding) | Molecule | IC50 (MCP-1 receptor B (CCR2B); competition with 100 pM labelled MCP-1, CHO-CCR2B membranes, read-out: IC50 in the hMCP-1 receptor binding assay) | concentration of maximal cell migration (biphasic response) (THP-1 cells [2]) |
| --- | --- | --- | --- | --- | --- |
|  |  |  | O=C(NC1CCS(=O)(=O)C1)c1c(C(=O)O)n(Cc2ccc(Cl)c(Cl)c2)c2ccccc12 (centres unmarked) [Compound 81] | 6860 nM |  |
| ~2 nM | 0.11 nM | 0.12 nM | MCP-1: Human Monocyte Chemoattractant Protein-1, a C—C chemokine; ligand of the MCP-1 (CCR2) receptor |  | 0.5-1.0 nm |
